Here are results for 2 sequences from PMC10063231, “Human thymopoiesis produces polyspecific CD8^+ α/β T cells responding to multiple viral antigens” (eLife, 2023).

The test system of this test is TCR identified as responding to the VMNILLQYV peptide (GAD 114-122 TCR). Briefly: Response of a cloned GAD 114-122-reactive TCR in the reporter cell line to cognate and unrelated peptides. Type of test: cell-based, human. The conditions noted are these: cognate peptide versus structurally unrelated peptide, Figure 5D.

With “VMNILLQYV [peptide from the Glutamic Acid Decarboxylase protein]”, the “Response of GAD 114-122 TCR in reporter cell line” value is recorded as “responding”.

With “SLYNPAIVYA [peptide from human chondroitin sulfate N-acetylgalactosaminyltransferase 2]”, the “Response of GAD 114-122 TCR in reporter cell line” value is recorded as “responded even better”.
